Measured values published in ChEMBL document CHEMBL1201862, “PubChem BioAssay data set” (2004).
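Five concentrations, 48 hours, 96-well plates. Abbreviation: GI50, concentration required for 50% inhibition of growth.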 Activity calls are given as the source filed them. Cut-off read from the data, not from the text of the source: active = GI50 up to about 1.1 µM and inactive = higher.

Tests used:
Experiment in all cases: NCI anticancer screen, dose series, 48 h
OVCAR-3 = system: OVCAR-3
SN12C = system: SN12C
PC-3 = system: PC-3
A498 = system: A498
SNB-75 = system: SNB-75
786-0 = system: 786-0
MOLT-4 = system: MOLT-4
T47D = system: T47D
UACC-257 = system: UACC-257
SF-268 = system: SF-268
DU-145 = system: DU-145
NCI-H226 = system: NCI-H226
A549 = system: A549
CCRF-CEM = system: CCRF-CEM
HCT-116 = system: HCT-116
SR = system: SR
KM12 = system: KM12
SK-OV-3 = system: SK-OV-3
SK-MEL-2 = system: SK-MEL-2
MDA-N = system: MDA-N

Structure (SMILES) | GI50 (OVCAR-3) | GI50 (SN12C) | GI50 (PC-3) | GI50 (A498) | GI50 (SNB-75) | GI50 (786-0) | GI50 (MOLT-4) | GI50 (T47D) | GI50 (UACC-257) | GI50 (SF-268) | GI50 (DU-145) | GI50 (NCI-H226) | GI50 (A549) | GI50 (CCRF-CEM) | GI50 (HCT-116) | GI50 (SR) | GI50 (KM12) | GI50 (SK-OV-3) | GI50 (SK-MEL-2) | GI50 (MDA-N)
COC(=O)c1ccc(C)cc1/C=C1\Cc2ccc(C)cc2C1=O | 6.52 µM (inactive) | 16.7 µM (inactive) | 17.9 µM (inactive) | 19.1 µM (inactive) | 5.64 µM (inactive) | 16.9 µM (inactive) | 13.2 µM (inactive) | 17.1 µM (inactive) | 22.6 µM (inactive) | 14.2 µM (inactive) | 16.7 µM (inactive) | 10.1 µM (inactive) | 26.9 µM (inactive) | 18.2 µM (inactive) | 11.1 µM (inactive) | 3.9 µM (inactive) | 11.6 µM (inactive) | – | – | –
O=C(O)CCN(CCC(=O)O)c1ccc(/C=C2\SC(=S)NC2=O)cc1 | > 100 µM (inactive) | > 100 µM (inactive) | > 100 µM (inactive) | > 100 µM (inactive) | > 100 µM (inactive) | > 100 µM (inactive) | > 100 µM (inactive) | > 100 µM (inactive) | > 100 µM (inactive) | > 100 µM (inactive) | > 100 µM (inactive) | > 100 µM (inactive) | > 100 µM (inactive) | > 100 µM (inactive) | > 100 µM (inactive) | > 100 µM (inactive) | > 100 µM (inactive) | > 100 µM (inactive) | > 100 µM (inactive) | –
CC(C)(C)OC(=O)N(CCCCNCc1ccc2ccccc2c1)CCCNCc1ccc2ccccc2c1 | 1.93 µM (inactive) | 1.75 µM (inactive) | 1.94 µM (inactive) | 1.91 µM (inactive) | 1.52 µM (inactive) | 1.41 µM (inactive) | 0.708 µM (active) | 1.74 µM (inactive) | 1.91 µM (inactive) | 1.77 µM (inactive) | 1.69 µM (inactive) | 1.64 µM (inactive) | 1.81 µM (inactive) | 1.22 µM (inactive) | 1.15 µM (inactive) | – | 1.3 µM (inactive) | 1.94 µM (inactive) | 2.06 µM (inactive) | –
CCOC(=O)[C@@H]1ON2O[C@@H](OC3CCCCC3c3ccccc3)C[C@H]3OC(=O)[C@@H]1C32 (stereo not given in full) | > 100 µM (inactive) | > 100 µM (inactive) | – | > 100 µM (inactive) | > 100 µM (inactive) | > 100 µM (inactive) | > 100 µM (inactive) | > 100 µM (inactive) | > 100 µM (inactive) | > 100 µM (inactive) | > 100 µM (inactive) | 93.8 µM (inactive) | 80.7 µM (inactive) | 0.792 µM (active) | > 100 µM (inactive) | 97.9 µM (inactive) | > 100 µM (inactive) | > 100 µM (inactive) | – | > 100 µM (inactive)
CN1CCN(C(=S)N(C(=O)c2cccs2)c2ccccc2)CC1 | > 100 µM (inactive) | > 100 µM (inactive) | – | – | 56 µM (inactive) | > 100 µM (inactive) | > 100 µM (inactive) | > 100 µM (inactive) | > 100 µM (inactive) | > 100 µM (inactive) | > 100 µM (inactive) | > 100 µM (inactive) | > 100 µM (inactive) | > 100 µM (inactive) | – | > 100 µM (inactive) | > 100 µM (inactive) | – | > 100 µM (inactive) | > 100 µM (inactive)
CN1CCN(c2cc3c(cc2F)c(=O)c(C(=O)O)cn3C2CC2)CC1CC#N (stereo not given) | > 100 µM (inactive) | > 100 µM (inactive) | – | > 100 µM (inactive) | > 100 µM (inactive) | > 100 µM (inactive) | > 100 µM (inactive) | > 100 µM (inactive) | > 100 µM (inactive) | > 100 µM (inactive) | > 100 µM (inactive) | > 100 µM (inactive) | > 100 µM (inactive) | > 100 µM (inactive) | > 100 µM (inactive) | > 100 µM (inactive) | > 100 µM (inactive) | > 100 µM (inactive) | – | > 100 µM (inactive)
COc1cc2c(cc1OC)C(Cc1ccccc1CCCl)=NCC2 | > 100 µM (inactive) | > 100 µM (inactive) | 31.1 µM (inactive) | > 100 µM (inactive) | 30.3 µM (inactive) | > 100 µM (inactive) | 38.6 µM (inactive) | 31.8 µM (inactive) | 50.8 µM (inactive) | 53 µM (inactive) | > 100 µM (inactive) | 31.3 µM (inactive) | 57.9 µM (inactive) | 58.7 µM (inactive) | 21.1 µM (inactive) | 84.1 µM (inactive) | 36.8 µM (inactive) | > 100 µM (inactive) | > 100 µM (inactive) | –
